Source: patent US5672586A, “Herpes ribonucleotide reductase inhibitors” (Bio-Mega/Boehringer Ingelheim Research, Inc., priority 1995, dated 1997)
Read-outs that look alike come from different tables or passages of the source.

How the values were obtained:
HSV-1 strain F = experiment: Inhibition of HSV-1 replication in cell culture (BHK-21 cells, ELISA of glycoprotein C), strain F; format: cell-based, Herpes simplex virus type 1; conditions: 24 hours incubation, read-out: EC50 (inhibition of viral replication)
Protocol: BHK-21 cells clone 13 (ATCC CCL10) were incubated for two days in 850 cm^2 roller bottles (2×10^7 cells/bottle) with alpha-MEM medium (Gibco Canada Inc., Burlington, Ontario, Canada) supplemented with 8% (v/v) fetal bovine serum (FBS, Gibco Canada, Inc.). The cells were trypsinized and then transferred to fresh media in a 96-well microtiter plate at a density of 50,000 cells per well in 100 μL. The cells were incubated at 37° for a period of 6 hours to allow adhesion to the plate. The cells then were washed once with 100 μL of alpha-MEM supplemented with 0.5% FBS (v/v) and incubated with 100 μL of the same media for 3 days. After this period of serum starvation, the low serum media was removed. The cells were washed once with 100 μL BBMT and incubated for two hours in 100 μL of the same media. {Note: BBMT medium is described by P. Brazeau et al., Proc. Natl. Acad. Sci. U.S.A., 79, 7909 (1980).} Thereafter, the cells were infected with HSV-1 strain F or KOS (multiplicity of infection =0.05 PFU/cell) in 50 μL of BBMT medium. Following one hour of virus absorption at 37°, the media was removed and the cells were washed with BBMT (2×100 μL). The cells were incubated with or without 100 μL of the appropriate concentration of test reagent in BBMT medium. After 24 hours of incubation at 37°, the extent of viral replication was determined by an ELISA assay; for instance, the following assay that detects the late glycoprotein C of HSV-1. Cells were fixed in a microtiter plate with 100 μL of 0.063% glutaraldehyde in phosphate buffered saline for 30 minutes at room temperature. The microtiter plate was then washed once with casein blocking solution and blocked with 200 μL of the same solution for one hour at room temperature. […] Color development was monitored at 450 nm using a microplate spectrophotometer. […] The following TABLE II provides examples of the results obtained when compounds of formula 1 were evaluated according to the cell culture assay (HSV-1 strain F) of this example.

[1] = biological target: T1, HSV-1 ribonucleotide reductase (Human herpesvirus 1, UniProt P08543); experiment: Inhibition of Herpes Simplex Virus (HSV-1) ribonucleotide reductase; format: biochemical; conditions: partially purified enzyme from HSV-1 strain F infected BHK-21/C13 cells; mean of four assays; read-out: IC50 (concentration producing 50% of the maximal inhibition of enzyme activity)
T1 construct: HSV-1 ribonucleotide reductase (partially purified) was obtained from quiescent BHK-21/Cl13 cells infected with strain F HSV-1 virus; made in house; host or cells: quiescent BHK-21/C13 hamster cells infected with HSV-1 strain F; native viral enzyme, partially purified
From the text: HSV-1 ribonucleotide reductase (partially purified) was obtained from quiescent BHK-21/Cl13 cells infected with strain F HSV-1 virus at 10 plaque forming units/cell as described by E. A. Cohen et al., J. Gen. Virol., 66, 733 (1985).
The assay described by P. Gaudreau et al., J. Biol, Chem., 262, 12413 (1987), is used to evaluate the capability of the compounds of formula 1 to inhibit HSV-1 ribonucleotide reductase activity. The assay results are expressed as the concentration of the compound producing 50% of the maximal inhibition (IC50) of enzyme activity. The number of units of the enzyme preparation used in each assay was constant, based on the specific activity of the enzyme preparation. The results are relative to the activity obtained in control experiments without the test compound and represent the means of four assays that varied less than 10% with each other.

HSV-1 KOS strain = experiment: Synergistic studies of acyclovir and the title compound of example 9 in the cell culture assay, HSV-1 KOS strain; format: cell-based, Herpes simplex virus type 1; conditions: for EC50: MOI = 0.05 PFU/cell
Protocol: BHK-21 cells clone 13 (ATCC CCL10) were incubated for two days in 850 cm^2 roller bottles (2×10^7 cells/bottle) with alpha-MEM medium (Gibco Canada Inc., Burlington, Ontario, Canada) supplemented with 8% (v/v) fetal bovine serum (FBS, Gibco Canada, Inc.). The cells were trypsinized and then transferred to fresh media in a 96-well microtiter plate at a density of 50,000 cells per well in 100 μL. The cells were incubated at 37° for a period of 6 hours to allow adhesion to the plate. The cells then were washed once with 100 μL of alpha-MEM supplemented with 0.5% FBS (v/v) and incubated with 100 μL of the same media for 3 days. After this period of serum starvation, the low serum media was removed. The cells were washed once with 100 μL BBMT and incubated for two hours in 100 μL of the same media. {Note: BBMT medium is described by P. Brazeau et al., Proc. Natl. Acad. Sci. U.S.A., 79, 7909 (1980).}
Thereafter, the cells were infected with HSV-1 strain F or KOS (multiplicity of infection =0.05 PFU/cell) in 50 μL of BBMT medium. Following one hour of virus absorption at 37°, the media was removed and the cells were washed with BBMT (2×100 μL). The cells were incubated with or without 100 μL of the appropriate concentration of test reagent in BBMT medium. After 24 hours of incubation at 37°, the extent of viral replication was determined by an ELISA assay; for instance, the following assay that detects the late glycoprotein C of HSV-1.
Cells were fixed in a microtiter plate with 100 μL of 0.063% glutaraldehyde in phosphate buffered saline for 30 minutes at room temperature. The microtiter plate was then washed once with casein blocking solution and blocked with 200 μL of the same solution for one hour at room temperature. Thereafter, 100 μL of mAB Cll recognizing HSV-1 gC envelope protein [see E. Trybala et al., Journal of General Virology, 75, 743 (1994)] was added to each well for two hours at room temperature. The plate was washed three times with phosphate buffered saline containing 0.05% polyoxyethylene (20) sorbitan monooleate. The cells were and incubated with 100 μL of sheep anti-mouse IgC horseradish peroxidase for one hour at room temperature in the dark.
The plate then was washed three times with 200 μL of the above-noted phosphate buffer saline preparation, and then once with 0.1M sodium citrate (pH 4.5). Thereafter, 100 μL of orthophenylenediamine dihydrochloride (OPD, Gibco, Canada Inc.) was added to each well. The plate was agitated on a microplate shaker for 30 minutes in the dark. Color development was monitored at 450 nm using a microplate spectrophotometer.
SAS was used to calculate % inhibition of viral replication and to generate ECl50 values.
The results are illustrated in accompanying FIG. 1.
More explicitly with reference to the isobole method, this method requires experimental data generated for the two test compounds, each alone and in different combinations. In this way selected concentrations of the title compound of example 9 (EC5, EC10, EC20 and EC30) were added to a given concentration of ACV and the EC50 's were evaluated as described previously. For these experiments, the EC5, EC10, EC20 and EC30 of the title compound of example 9 (i.e. the test compound) were derived from inhibition curves previously obtained. An isobologram is generated using for the Y axis a value termed FEC60 (ACV) (which is the ratio of the concentration of ACV required to inhibit HSV replication by 60% in the presence of a fixed concentration of the test compound to the concentration required in the absence of the test compound). This is plotted against a term representing the ratio of the fixed concentration of the test compound to the concentration of the test compound that reduced inhibition of HSV replication in the absence of ACV (the X axis).
The following TABLE III is illustrative of results obtained when combinations of ACV and the title compound of example 9 (TC) were evaluated for their antiherpes activity against HSV-1. […]

T1 sequence (P08543 whole entry): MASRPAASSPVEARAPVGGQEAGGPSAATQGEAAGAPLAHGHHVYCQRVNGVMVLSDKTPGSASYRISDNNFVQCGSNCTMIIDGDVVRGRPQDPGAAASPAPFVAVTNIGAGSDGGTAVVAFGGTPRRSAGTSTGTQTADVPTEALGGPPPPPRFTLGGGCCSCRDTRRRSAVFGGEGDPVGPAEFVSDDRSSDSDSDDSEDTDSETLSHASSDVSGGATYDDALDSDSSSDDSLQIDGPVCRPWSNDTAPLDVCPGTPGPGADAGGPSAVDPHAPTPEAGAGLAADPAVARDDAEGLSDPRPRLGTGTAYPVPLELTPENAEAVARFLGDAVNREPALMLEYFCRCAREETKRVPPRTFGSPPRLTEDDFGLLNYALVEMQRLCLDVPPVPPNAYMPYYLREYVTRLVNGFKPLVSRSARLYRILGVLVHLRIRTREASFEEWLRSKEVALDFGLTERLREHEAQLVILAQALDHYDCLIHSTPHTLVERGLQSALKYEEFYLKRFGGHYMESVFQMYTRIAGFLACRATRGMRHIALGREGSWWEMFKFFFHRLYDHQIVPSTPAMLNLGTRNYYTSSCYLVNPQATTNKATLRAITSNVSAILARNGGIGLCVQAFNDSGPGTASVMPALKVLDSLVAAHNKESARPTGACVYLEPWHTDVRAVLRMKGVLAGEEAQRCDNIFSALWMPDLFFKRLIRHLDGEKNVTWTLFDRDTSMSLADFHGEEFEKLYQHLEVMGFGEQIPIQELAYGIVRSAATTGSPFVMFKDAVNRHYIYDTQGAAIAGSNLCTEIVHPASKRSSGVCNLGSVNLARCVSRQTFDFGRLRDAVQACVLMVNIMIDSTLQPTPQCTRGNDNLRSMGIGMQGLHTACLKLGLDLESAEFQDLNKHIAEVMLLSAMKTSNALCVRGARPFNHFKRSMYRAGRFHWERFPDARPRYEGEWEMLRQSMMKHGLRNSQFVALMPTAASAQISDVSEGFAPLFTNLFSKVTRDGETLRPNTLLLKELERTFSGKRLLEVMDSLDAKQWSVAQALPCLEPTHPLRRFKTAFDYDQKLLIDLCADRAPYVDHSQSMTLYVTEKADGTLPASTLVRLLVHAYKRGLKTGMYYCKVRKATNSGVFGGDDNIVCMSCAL

Compound	EC50 (HSV-1 strain F) [nM]	IC50 [1] [nM]	EC50 (HSV-1 KOS strain; ACV + 0.05 μM of TC, read-out: EC50 of ACV in combination) [nM]	EC50 (HSV-1 KOS strain; ACV + 0.1 μM of TC, read-out: EC50 of ACV in combination) [nM]	EC50 (HSV-1 KOS strain; ACV + 0.15 μM of TC, read-out: EC50 of ACV in combination) [nM]	EC50 (HSV-1 KOS strain; ACV + 0.2 μM of TC, read-out: EC50 of ACV in combination) [nM]	EC50 (HSV-1 KOS strain; ACV + 0.3 μM of TC, read-out: EC50 of ACV in combination) [nM]	EC50 (HSV-1 KOS strain; ACV + 0.4 μM of TC, read-out: EC50 of ACV in combination) [nM]	EC50 (HSV-1 KOS strain; compound alone, read-out: EC50) [nM]	Effect of combining with acyclovir on the EC50 of acyclovir (synergy, isobole method) (HSV-1 KOS strain; increasing concentrations of the title compound of example 9)
{3-cyclohexyl-2(S)-(1-methylethyl)-1-oxopropyl}-(N-Me) Val-Tbg-CH2 --(R)--CH(CH2 C(O)CMe3)C(O)-Asp(cypn)-NH--(R)--CH (Et)CMe3 [R^1 =H and R^2 =CHMe2]	200	123								
Nc1nc2c(ncn2COCCO)c(=O)[nH]1 [ACV, acyclovir]			6300	3200	1790	1790	1000	500	6950	
(3-cyclohexyl-2 (R), 3 (R)-dimethyl-1-oxopropyl)-(N-Me) Val-Tbg-CH2 --(R)--CH (CH2 C(O) CMe3)C(O)-Asp (cyPn)-NH--(R)--CH (Et) CMe3 [R^1 and R^2 =Me]	200	191								
CC[C@@H](NC(=O)[C@@H](NC(=O)[C@@H](CC(=O)[C@@H](NC(=O)[C@H](C(C)C)N(C)C(=O)[C@H](C)CC1CCCCC1)C(C)(C)C)CC(=O)C(C)(C)C)C1(C(=O)O)CCCC1)C(C)(C)C [R^1 =H and R^2 =Me, (3-Cyclohexyl-2(R)-methyl-1-oxopropyl)-(N--Me) Val-Tbg-CH2 --(R)--CH(CH2 C(O)CMe3)--C (O)-Asp(cyPn)-NH--(R)--CH(Et)CMe3]	400	147							473	proportional lowering of the EC50 of acyclovir
